Assay: xn = mol fraction of the nth substance listed
Conditions: 298.15 K, 101.3 kPa

CCOC(C)=O + CCCC[n+]1ccn(C)c1.F[P-](F)(F)(F)(F)F
viscosity (x1 = 1): 0.439 mPa·s

CCC(C)=O + CCCC[n+]1ccn(C)c1.F[P-](F)(F)(F)(F)F
viscosity (x1 = 1): 0.388 mPa·s

CCC(=O)CC + CCCC[n+]1ccn(C)c1.F[P-](F)(F)(F)(F)F
viscosity (x1 = 0.1088): 137 mPa·s | viscosity (x1 = 0.3986): 24.26 mPa·s | viscosity (x1 = 0.4491): 17.94 mPa·s | viscosity (x1 = 0.5503): 10.02 mPa·s | viscosity (x1 = 0.601): 7.37 mPa·s | viscosity (x1 = 0.6983): 4.03 mPa·s | viscosity (x1 = 0.8007): 2.022 mPa·s | viscosity (x1 = 0.9019): 0.972 mPa·s | viscosity (x1 = 0.948): 0.69 mPa·s | viscosity (x1 = 1): 0.458 mPa·s

CC(C)=O + CCCC[n+]1ccn(C)c1.F[P-](F)(F)(F)(F)F
viscosity (x1 = 1): 0.316 mPa·s

CCCC[n+]1ccn(C)c1.F[P-](F)(F)(F)(F)F + CCOC(C)=O
viscosity (x2 = 0): 270 mPa·s | viscosity (x2 = 0.0937): 149 mPa·s | viscosity (x2 = 0.1914): 87.9 mPa·s | viscosity (x2 = 0.2918): 48.2 mPa·s | viscosity (x2 = 0.3944): 27.52 mPa·s | viscosity (x2 = 0.4485): 20.54 mPa·s | viscosity (x2 = 0.4967): 16.16 mPa·s | viscosity (x2 = 0.5529): 11.52 mPa·s | viscosity (x2 = 0.6039): 8.45 mPa·s | viscosity (x2 = 0.7092): 4.21 mPa·s | viscosity (x2 = 0.8037): 2.208 mPa·s | viscosity (x2 = 0.898): 1.083 mPa·s | viscosity (x2 = 0.9504): 0.699 mPa·s

CCCC[n+]1ccn(C)c1.F[P-](F)(F)(F)(F)F + CCC(C)=O
viscosity (x2 = 0): 270 mPa·s | viscosity (x2 = 0.0995): 145 mPa·s | viscosity (x2 = 0.2007): 81.6 mPa·s | viscosity (x2 = 0.5002): 13.55 mPa·s | viscosity (x2 = 0.5506): 9.82 mPa·s | viscosity (x2 = 0.5988): 7.27 mPa·s | viscosity (x2 = 0.7023): 3.701 mPa·s | viscosity (x2 = 0.8004): 1.861 mPa·s | viscosity (x2 = 0.9027): 0.861 mPa·s | viscosity (x2 = 0.9487): 0.606 mPa·s

CCCC[n+]1ccn(C)c1.F[P-](F)(F)(F)(F)F + CCC(=O)CC
viscosity (x2 = 0): 270 mPa·s

CCCC[n+]1ccn(C)c1.F[P-](F)(F)(F)(F)F + CC(C)=O
viscosity (x2 = 0): 270 mPa·s | viscosity (x2 = 0.1147): 137 mPa·s | viscosity (x2 = 0.198): 84.8 mPa·s | viscosity (x2 = 0.2923): 46.7 mPa·s | viscosity (x2 = 0.4035): 24 mPa·s | viscosity (x2 = 0.4993): 13.41 mPa·s | viscosity (x2 = 0.5495): 9.68 mPa·s | viscosity (x2 = 0.6519): 4.99 mPa·s | viscosity (x2 = 0.6989): 3.69 mPa·s | viscosity (x2 = 0.8956): 0.81 mPa·s | viscosity (x2 = 0.9481): 0.516 mPa·s

O=C1CCCC1 + CCCC[n+]1ccn(C)c1.F[P-](F)(F)(F)(F)F
viscosity (x1 = 0.1883): 114.8 mPa·s | viscosity (x1 = 0.4475): 33.04 mPa·s | viscosity (x1 = 0.5025): 24.71 mPa·s | viscosity (x1 = 0.6034): 14.52 mPa·s | viscosity (x1 = 0.6502): 11.01 mPa·s | viscosity (x1 = 0.7011): 7.89 mPa·s | viscosity (x1 = 0.8041): 4.19 mPa·s | viscosity (x1 = 0.8982): 2.274 mPa·s | viscosity (x1 = 0.9518): 1.566 mPa·s | viscosity (x1 = 1): 1.074 mPa·s

Source: a compilation of properties of binary mixtures (doi:10.1007/s10953-005-5594-7)
